Tests used:
[1] = biological target: 11-beta-hydroxysteroid dehydrogenase 1 (Homo sapiens, UniProt P28845)
Description: Binding affinity to human 11beta HSD1 expressed in Escherichia coli by scintillation proximity assay

[2] = biological target: T1, 11-beta-hydroxysteroid dehydrogenase type 2 (Homo sapiens, UniProt P80365); assay: biochemical
T1 sequence (P80365 whole entry): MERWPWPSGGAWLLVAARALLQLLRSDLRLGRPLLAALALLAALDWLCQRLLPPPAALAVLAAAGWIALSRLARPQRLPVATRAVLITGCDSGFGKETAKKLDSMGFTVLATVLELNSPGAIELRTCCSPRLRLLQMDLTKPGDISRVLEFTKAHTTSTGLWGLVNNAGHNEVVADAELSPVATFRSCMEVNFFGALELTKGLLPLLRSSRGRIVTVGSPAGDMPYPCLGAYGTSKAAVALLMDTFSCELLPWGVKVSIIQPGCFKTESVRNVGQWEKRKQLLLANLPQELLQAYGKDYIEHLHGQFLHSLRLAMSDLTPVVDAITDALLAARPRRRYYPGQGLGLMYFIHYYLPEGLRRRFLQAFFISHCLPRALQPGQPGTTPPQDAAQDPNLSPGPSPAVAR
Description: Binding affinity to human 11beta HSD2 in HEK293 cells by scintillation proximity assay

[3] = test system: Mus musculus; assay: Ex vivo inhibition of 11beta HSD1 activity in C57BL/6 mouse adipose tissue at 30 mg/kg, po after 6 hrs; format: functional; design: scale not given: the % may be the effect or the level left
[4] = test system: Mus musculus; assay: Ex vivo inhibition of 11beta HSD1 activity in C57BL/6 mouse adipose tissue at 30 mg/kg, po after 2 hrs; format: functional; design: scale not given: the % may be the effect or the level left
[5] = test system: Plasma; assay: Protein binding in C57BL/6 mouse plasma assessed as fraction unbound at 30 mg/kg, po after 2 hrs; format: ADME, organism-based; design: dose 30 mg/kg, route oral; conditions: in vivo
[6] = Volume of distribution at steady state in rat at 0.5 mg/kg, iv; format: ADME, organism-based; design: dose 0.5 mg/kg, route intravenous; conditions: in vivo, read-out: Vdss
[7] = Oral bioavailability in rat at 2 mg/kg; format: ADME, organism-based; conditions: in vivo
[8] = biological target: 11-beta-hydroxysteroid dehydrogenase 1 (Rattus norvegicus, UniProt P16232); assay: Binding affinity to rat recombinant 11beta HSD1 by scintillation proximity assay
[9] = test system: Rattus norvegicus; assay: AUC(0 to infinity) in rat at 2 mg/kg, po; format: ADME, organism-based, Plasma; design: time infinity, dose 2 mg/kg, route oral; conditions: in vivo
[10] = test system: Mus musculus; assay: Ex vivo inhibition of 11beta HSD1 activity in C57BL/6 mouse liver at 30 mg/kg, po after 2 hrs; format: functional; design: scale not given: the % may be the effect or the level left
[11] = Tmax in rat at 2 mg/kg, po; format: ADME, organism-based; design: dose 2 mg/kg, route oral; conditions: in vivo
[12] = Clearance in rat at 0.5 mg/kg, iv; format: ADME, organism-based; design: dose 0.5 mg/kg, route intravenous; conditions: in vivo
[13] = Plasma concentration in C57BL/6 mouse plasma at 30 mg/kg, po after 6 hrs; format: ADME, organism-based; design: dose 30 mg/kg, route oral
[14] = Ratio of Ki for mouse 11beta HSD1 over Ki for human 11beta HSD1
[15] = test system: Plasma; assay: Protein binding in C57BL/6 mouse plasma assessed as fraction unbound at 30 mg/kg, po after 6 hrs; format: ADME, organism-based; design: dose 30 mg/kg, route oral; conditions: in vivo
[16] = Plasma concentration in C57BL/6 mouse plasma at 30 mg/kg, po after 2 hrs; format: ADME, organism-based; design: dose 30 mg/kg, route oral
[17] = test system: Mus musculus; assay: Ex vivo inhibition of 11beta HSD1 activity in C57BL/6 mouse liver at 30 mg/kg, po after 6 hrs; format: functional; design: scale not given: the % may be the effect or the level left
[18] = biological target: 11-beta-hydroxysteroid dehydrogenase 1 (Mus musculus, UniProt P50172); assay: Binding affinity to C57BL/6 mouse recombinant 11beta HSD1 by scintillation proximity assay
[19] = Half life in rat at 2 mg/kg, po; format: ADME, organism-based; design: dose 2 mg/kg, route oral; conditions: in vivo

Chain of 11-beta-hydroxysteroid dehydrogenase 1 (Homo sapiens, UniProt P28845) (P28845 whole entry): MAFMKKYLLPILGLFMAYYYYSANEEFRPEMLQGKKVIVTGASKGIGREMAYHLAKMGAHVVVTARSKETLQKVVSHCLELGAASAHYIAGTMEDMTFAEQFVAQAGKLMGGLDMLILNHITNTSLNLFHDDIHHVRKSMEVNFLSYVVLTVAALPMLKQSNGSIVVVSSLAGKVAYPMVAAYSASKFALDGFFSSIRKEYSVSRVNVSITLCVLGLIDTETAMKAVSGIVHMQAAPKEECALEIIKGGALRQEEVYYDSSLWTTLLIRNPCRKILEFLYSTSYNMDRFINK
Chain of 11-beta-hydroxysteroid dehydrogenase 1 (Mus musculus, UniProt P50172) (P50172 whole entry): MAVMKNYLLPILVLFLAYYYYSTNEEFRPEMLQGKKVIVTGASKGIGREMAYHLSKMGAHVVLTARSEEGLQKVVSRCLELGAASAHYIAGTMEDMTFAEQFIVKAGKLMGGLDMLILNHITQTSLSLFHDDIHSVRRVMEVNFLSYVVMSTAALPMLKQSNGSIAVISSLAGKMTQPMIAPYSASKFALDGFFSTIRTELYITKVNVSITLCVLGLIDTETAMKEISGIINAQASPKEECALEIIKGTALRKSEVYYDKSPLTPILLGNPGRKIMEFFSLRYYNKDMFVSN
Chain of 11-beta-hydroxysteroid dehydrogenase 1 (Rattus norvegicus, UniProt P16232) (P16232 whole entry): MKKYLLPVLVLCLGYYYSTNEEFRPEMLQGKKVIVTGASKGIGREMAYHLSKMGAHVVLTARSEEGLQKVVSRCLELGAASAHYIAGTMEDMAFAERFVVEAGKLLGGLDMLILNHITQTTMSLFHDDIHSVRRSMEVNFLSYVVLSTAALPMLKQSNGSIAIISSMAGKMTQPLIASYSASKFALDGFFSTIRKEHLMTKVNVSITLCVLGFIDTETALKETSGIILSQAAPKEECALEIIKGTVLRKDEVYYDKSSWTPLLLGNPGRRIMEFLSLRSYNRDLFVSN

Compound	Ki [1] [nM]	IC50 [2] [µM]	further results
CCCC1(C)SC(NC2CCCCCCC2)=NC1=O (racemic)	28	> 10	–
CCCC1(C)SC(NC2C(C)(C)C2(C)C)=NC1=O (racemic)	38	–	–
CCCC1(C)SC(NC2CCCCC2)=NC1=O (racemic)	55	–	–
CCC1(C)SC(NC2C3CCC2CC3)=NC1=O (racemic)	372	–	–
CCC1(C)SC(NC2CCCCCC2)=NC1=O (racemic)	82	> 10	–
CCC1(C)SC(NC2CCCCC2)=NC1=O (racemic)	126	–	–
CCCC1(C)SC(NC2CCCCCC2)=NC1=O (racemic)	32	> 10	–
CCC1(CC)SC(NC2CCCCCCC2)=NC1=O	26	> 10	–
CCC1(C)SC(Nc2ccccc2F)=NC1=O (configuration not stated)	151	–	–
CCC1(C)SC(NC2CCCCCCC2)=NC1=O (racemic)	47	> 10	–
CCC1(C)SC(NC2C(C)(C)C2(C)C)=NC1=O (racemic)	58	–	–
CCC1SC(Nc2ccccc2C)=NC1=O (configuration not stated)	189	> 10	–
CCCC1(C)SC(NCC2CCCCC2)=NC1=O (racemic)	34	–	–
CCCC1(C)SC(NC2C3CCC2CC3)=NC1=O (racemic)	149	> 10	–
CCC1(C)SC(NC23CCC(CC2)C3)=NC1=O (racemic)	73	> 10	–
CCC1(C)SC(NCC2CCCCC2)=NC1=O (racemic)	64	–	–
O=C1N=C(NC23CC4CC(CC(C4)C2)C3)SC12CCCC2	28	–	–

Stronger by Ki [1], values ahead:

Ki [1] [nM]	IC50 [2] [µM]	Compound	further results
13	> 10	CCC1(C)SC(NC23CC4CC(CC2C4)C3)=NC1=O (racemic)	–
12	–	CCCC1(C)SC(NC23CC4CC(CC2C4)C3)=NC1=O (racemic)	–
3	> 10	O=C1N=C(NC23CC4CC(CC2C4)C3)SC12CCCC2	Activity [3]: 87%; Activity [4]: 86%; Activity [5]: 120 nM; Fu [5]: 0.63%; Vd [6]: 1.84 L/kg; bioavailability [7]: 45%; Ki [8]: 180 nM; AUC [9]: 175 ng·h/mL; Activity [10]: 89%; Tmax [11]: 2.5 h; clearance [12]: 104 mL/min/kg; concentration at 6 h [13]: 7.3 µM; Ratio Ki [14]: 40; Activity [15]: 44 nM; Fu [15]: 0.63%; concentration at 2 h [16]: 20 µM; Activity [17]: 79%; Ki [18]: 120 nM; half-life [19]: 120 min
24	–	CCC1(C)SC(NC23CC4CC(CC(C4)C2)C3)=NC1=O (racemic)	–
25	–	CCCC1(C)SC(NC23CCC(CC2)C3)=NC1=O (racemic)	–
13	> 10	CCC1(CC)SC(NC23CC4CC(CC2C4)C3)=NC1=O	–
24	–	CCCC1(C)SC(NC23CC4CC(CC(C4)C2)C3)=NC1=O (racemic)	–
14	> 10	O=C1N=C(NC2CCCCCCC2)SC12CCCC2	–
20	–	CCC1(CC)SC(NC23CC4CC(CC(C4)C2)C3)=NC1=O	–

From ChEMBL document CHEMBL1150276, “2-amino-1,3-thiazol-4(5H)-ones as potent and selective 11beta-hydroxysteroid dehydrogenase type 1 inhibitors: enzyme-ligand co-crystal structure and demonstration of pharmacodynamic effects in C57Bl/6 mice” (J Med Chem, 2008)
